Tested on: cynomolgus monkeys
Experiment: 4-week safety study: serum biochemistry
Type: in vivo
Description: […] (1) Hematological and coagulation index examination were performed using a Bayer ADVIA2120 (Germany) and a Sysmex CA-1500 (Japan). (2) The serum biochemical examination was assessed using a HITACHI 7080 automated analyzer (Japan) and an Easylyte PLUS electrolyte analyzer (MEDICA, America). (3) The 24-h pooled urine of each animal was collected by a tray under each cage. Urinalysis was carried out using Uritest-300 (China). (4) The 24-h pooled faeces of each monkey were collected by a tray under each cage. Fecal occult blood was detected. (5) ACCESS 2 Chemiluminescence immunoassay was used for myocardial troponin (TropI, non-GLP) test.

COC(=O)NCCCn1nc([C@@H](C)N(C(=O)[C@H]2CNCCO2)C2CC2)c2ccc(C)nc21 [compound of Formula I]
BUN (Female, 20 mg/kg, d0): 6.1 ± 1.1 mmol/L | CHOL (Female, 20 mg/kg, d0): 3.0 ± 0.5 mmol/L | CPK (Female, 20 mg/kg, d0): 158.4 ± 63.5 U · L^−1 | CREA (Female, 20 mg/kg, d0): 59 ± 4 µM | K (Female, 20 mg/kg, d0): 5.0 ± 0.3 mmol/L | Na (Female, 20 mg/kg, d0): 149.4 ± 3.5 mmol/L | BUN (Female, 20 mg/kg, d14): 5.4 ± 0.9 mmol/L | CHOL (Female, 20 mg/kg, d14): 2.8 ± 0.2 mmol/L | CPK (Female, 20 mg/kg, d14): 151.6 ± 45.2 U · L^−1 | CREA (Female, 20 mg/kg, d14): 52.4 ± 3.8 µM | K (Female, 20 mg/kg, d14): 5.2 ± 0.2 mmol/L | Na (Female, 20 mg/kg, d14): 149.6 ± 1.7 mmol/L | BUN (Female, 20 mg/kg, d26): 6.3 ± 1.1 mmol/L | CHOL (Female, 20 mg/kg, d26): 2.7 ± 0.3 mmol/L | CPK (Female, 20 mg/kg, d26): 149.4 ± 58.7 U · L^−1 | CREA (Female, 20 mg/kg, d26): 51.2 ± 3.6 µM | K (Female, 20 mg/kg, d26): 4.9 ± 0.5 mmol/L | Na (Female, 20 mg/kg, d26): 149.2 ± 4.3 mmol/L | BUN (Female, 20 mg/kg, d 56): 6.0 ± 0.6 mmol/L | CHOL (Female, 20 mg/kg, d 56): 3.0 ± 0.1 mmol/L | CPK (Female, 20 mg/kg, d 56): 129.0 ± 5.7 U · L^−1 | CREA (Female, 20 mg/kg, d 56): 51.5 ± 4.9 µM | K (Female, 20 mg/kg, d 56): 5.0 ± 0.5 mmol/L | Na (Female, 20 mg/kg, d 56): 147.2 ± 4.2 mmol/L | BUN (Female, 100 mg/kg, d0): 5.9 ± 1.1 mmol/L | CHOL (Female, 100 mg/kg, d0): 3.8 ± 1.3 mmol/L | CPK (Female, 100 mg/kg, d0): 187.6 ± 75.0 U · L^−1 | CREA (Female, 100 mg/kg, d0): 55.2 ± 4.7 µM | K (Female, 100 mg/kg, d0): 4.5 ± 0.4 mmol/L | Na (Female, 100 mg/kg, d0): 149.4 ± 1.9 mmol/L | BUN (Female, 100 mg/kg, d14): 6.4 ± 0.8 mmol/L | CHOL (Female, 100 mg/kg, d14): 2.9 ± 0.6 mmol/L | CPK (Female, 100 mg/kg, d14): 247.2 ± 89.5 U · L^−1 | CREA (Female, 100 mg/kg, d14): 55.2 ± 3.8 µM | K (Female, 100 mg/kg, d14): 4.7 ± 0.5 mmol/L | Na (Female, 100 mg/kg, d14): 149.8 ± 3.7 mmol/L | BUN (Female, 100 mg/kg, d26): 6.4 ± 1.6 mmol/L | CHOL (Female, 100 mg/kg, d26): 3.1 ± 0.5 mmol/L | CPK (Female, 100 mg/kg, d26): 195.0 ± 96.8 U · L^−1 | CREA (Female, 100 mg/kg, d26): 51.2 ± 3.6 µM | K (Female, 100 mg/kg, d26): 4.8 ± 0.6 mmol/L | Na (Female, 100 mg/kg, d26): 149.6 ± 3.8 mmol/L | BUN (Female, 100 mg/kg, d 56): 5.2 ± 0.2 mmol/L | CHOL (Female, 100 mg/kg, d 56): 3.6 ± 0.2 mmol/L | CPK (Female, 100 mg/kg, d 56): 112.0 ± 12.7 U · L^−1 | CREA (Female, 100 mg/kg, d 56): 54.5 ± 4.9 µM | K (Female, 100 mg/kg, d 56): 4.2 ± 0.2 mmol/L | Na (Female, 100 mg/kg, d 56): 147.9 ± 1.3 mmol/L | BUN (Female, 450 mg/kg, d0): 6.1 ± 0.7 mmol/L | CHOL (Female, 450 mg/kg, d0): 3.3 ± 0.4 mmol/L | CPK (Female, 450 mg/kg, d0): 163.2 ± 56.2 U · L^−1 | CREA (Female, 450 mg/kg, d0): 54.4 ± 7.1 µM | K (Female, 450 mg/kg, d0): 5.1 ± 0.5 mmol/L | Na (Female, 450 mg/kg, d0): 150.1 ± 2.2 mmol/L | BUN (Female, 450 mg/kg, d14): 14.3 ± 11.8 mmol/L | CHOL (Female, 450 mg/kg, d14): 2.4 ± 0.9 mmol/L | CPK (Female, 450 mg/kg, d14): 815.2 ± 1316.0 U · L^−1 | CREA (Female, 450 mg/kg, d14): 162 ± 204 µM | K (Female, 450 mg/kg, d14): 5.5 ± 0.2 mmol/L | Na (Female, 450 mg/kg, d14): 144.6 ± 3.5 mmol/L | BUN (Female, 450 mg/kg, d26): 9.7 ± 1.0 mmol/L | CHOL (Female, 450 mg/kg, d26): 2.0 ± 0.7 mmol/L | CPK (Female, 450 mg/kg, d26): 328.5 ± 259.1 U · L^−1 | CREA (Female, 450 mg/kg, d26): 64.3 ± 7.1 µM | K (Female, 450 mg/kg, d26): 5.3 ± 0.4 mmol/L | Na (Female, 450 mg/kg, d26): 145.0 ± 2.6 mmol/L | BUN (Female, 450 mg/kg, d 56): 5.6 ± 0.6 mmol/L | CHOL (Female, 450 mg/kg, d 56): 3.1 ± 0.3 mmol/L | CPK (Female, 450 mg/kg, d 56): 290.0 ± 176.8 U · L^−1 | CREA (Female, 450 mg/kg, d 56): 57 ± 2.8 µM | K (Female, 450 mg/kg, d 56): 4.8 ± 0.2 mmol/L | Na (Female, 450 mg/kg, d 56): 145.7 ± 0.9 mmol/L | BUN (Male, 20 mg/kg, d0): 5.1 ± 0.9 mmol/L | CHOL (Male, 20 mg/kg, d0): 2.9 ± 0.5 mmol/L | CPK (Male, 20 mg/kg, d0): 156.6 ± 76.3 U · L^−1 | CREA (Male, 20 mg/kg, d0): 64.2 ± 7.2 µM

Reference: patent publication US20230330093A1, “APPLICATION OF NITROGEN-CONTAINING SATURATED HETEROCYCLIC COMPOUND” (SHANGHAI PHARMACEUTICALS HOLDING CO., LTD., priority 2020, published 2023)
